Results reported in ChEMBL document CHEMBL1144315, “Three-dimensional quantitative structure (3-D QSAR) activity relationship studies on imidazolyl and N-pyrrolyl heptenoates as 3-hydroxy-3-methylglutaryl-CoA reductase (HMGR) inhibitors by comparative molecular similarity indices analysis (CoMSIA)” (Bioorg Med Chem Lett, 2005).

Biological target: T1, 3-hydroxy-3-methylglutaryl-coenzyme A reductase (Homo sapiens, UniProt P04035)
T1 sequence (P04035 whole entry): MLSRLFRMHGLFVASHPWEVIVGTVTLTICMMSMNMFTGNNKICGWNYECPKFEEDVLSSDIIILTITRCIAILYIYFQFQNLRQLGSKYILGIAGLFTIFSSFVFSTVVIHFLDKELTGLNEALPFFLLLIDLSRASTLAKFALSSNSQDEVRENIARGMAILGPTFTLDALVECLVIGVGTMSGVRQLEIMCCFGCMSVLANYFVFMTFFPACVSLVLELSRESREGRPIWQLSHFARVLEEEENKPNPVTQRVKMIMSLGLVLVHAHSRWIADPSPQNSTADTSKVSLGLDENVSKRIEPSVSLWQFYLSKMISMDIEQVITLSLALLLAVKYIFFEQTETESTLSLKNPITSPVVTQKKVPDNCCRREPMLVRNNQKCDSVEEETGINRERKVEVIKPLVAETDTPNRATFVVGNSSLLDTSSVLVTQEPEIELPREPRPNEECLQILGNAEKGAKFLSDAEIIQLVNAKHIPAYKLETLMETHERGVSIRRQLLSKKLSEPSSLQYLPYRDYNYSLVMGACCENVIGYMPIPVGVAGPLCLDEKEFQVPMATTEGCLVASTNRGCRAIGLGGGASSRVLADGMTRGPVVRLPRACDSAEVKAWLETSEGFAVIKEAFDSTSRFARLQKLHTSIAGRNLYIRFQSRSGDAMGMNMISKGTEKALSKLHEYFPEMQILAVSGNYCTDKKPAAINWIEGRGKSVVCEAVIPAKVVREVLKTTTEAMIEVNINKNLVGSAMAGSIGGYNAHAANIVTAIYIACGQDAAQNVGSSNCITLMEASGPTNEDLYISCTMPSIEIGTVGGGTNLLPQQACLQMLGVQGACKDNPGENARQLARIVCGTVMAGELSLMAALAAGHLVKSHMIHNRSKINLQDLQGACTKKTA
Assay: Inhibitory concentration against 3-hydroxy-3-methylglutaryl-CoA reductase

Row | IC50 | SMILES
1 | 7.89 nM | O=C(O)C[C@H](O)C[C@H](O)/C=C/n1c(C(F)(F)F)nc(-c2ccc(F)cc2)c1-c1ccc(F)cc1
2 | 7.25 nM | Cc1cc(C)cc(-c2c(-c3ccc(F)cc3)nc(C(C)C)n2/C=C/[C@@H](O)C[C@@H](O)CC(=O)O)c1
3 | 8.7 nM | CC(C)c1nc(-c2cccc(S(C)(=O)=O)c2)c(-c2ccc(F)cc2)n1/C=C/[C@@H](O)C[C@@H](O)CC(=O)O
4 | 9.52 nM | CC(C)c1c(Br)c(-c2ccc(F)cc2)c(-c2ccc(F)cc2)n1/C=C/[C@@H](O)C[C@@H](O)CC(=O)O
5 | < 7 nM | Cc1nc(-c2ccc(F)cc2)c(-c2ccc(F)cc2)n1/C=C/[C@@H](O)C[C@@H](O)CC(=O)O
6 | 8.4 nM | Cc1cc(F)ccc1-c1c(-c2ccc(F)cc2)nc(C(C)C)n1/C=C/[C@@H](O)C[C@@H](O)CC(=O)O
7 | 7.6 nM | CC(C)c1cc(-c2ccc(F)cc2)c(-c2ccccc2)n1/C=C/[C@@H](O)C[C@@H](O)CC(=O)O
8 | 8.52 nM | CNc1cccc(-c2nc(C(C)C)n(/C=C/[C@@H](O)C[C@@H](O)CC(=O)O)c2-c2ccc(F)cc2)c1
9 | 8.15 nM | CC(C)(C)c1nc(-c2ccc(F)cc2)c(-c2ccc(F)cc2)n1/C=C/[C@@H](O)C[C@@H](O)CC(=O)O
10 | 8.7 nM | CC(C)c1cc(-c2ccccc2)c(-c2ccc(F)cc2)n1/C=C/[C@@H](O)C[C@@H](O)CC(=O)O
11 | 7.52 nM | Cc1cc(-c2c(-c3ccc(F)cc3)nc(C(C)C)n2/C=C/[C@@H](O)C[C@@H](O)CC(=O)O)cc(C)c1F
12 | 7.15 nM | CC(C)c1cc(-c2ccc(F)cc2)c(-c2cccc(Cl)c2)n1/C=C/[C@@H](O)C[C@@H](O)CC(=O)O
13 | 8.04 nM | CN(C)c1nc(-c2ccc(F)cc2)c(-c2ccc(F)cc2)n1/C=C/[C@@H](O)C[C@@H](O)CC(=O)O
14 | 7 nM | CCc1cc(-c2c(-c3ccc(F)cc3)nc(C(C)C)n2/C=C/[C@@H](O)C[C@@H](O)CC(=O)O)cc(CC)c1F
15 | 8.7 nM | CC(C)c1cc(-c2cccc(Cl)c2)c(-c2ccc(F)cc2)n1/C=C/[C@@H](O)C[C@@H](O)CC(=O)O
16 | 7.16 nM | CC(C)c1cc(-c2ccc(F)cc2)c(-c2cccc(Br)c2)n1/C=C/[C@@H](O)C[C@@H](O)CC(=O)O

Row | IC50 | SMILES
17 | 9 nM | CC(C)c1c(-c2ccc(F)cc2)nc(-c2ccc(F)cc2)n1/C=C/[C@@H](O)C[C@@H](O)CC(=O)O
18 | 8.7 nM | Cc1cc(-c2nc(C(C)C)n(/C=C/[C@@H](O)C[C@@H](O)CC(=O)O)c2-c2ccc(F)cc2)cc(C)c1Cl
19 | 9.3 nM | CC(C)c1cc(-c2cccc(Br)c2)c(-c2ccc(F)cc2)n1/C=C/[C@@H](O)C[C@@H](O)CC(=O)O
20 | 6.15 nM | CC(C)c1nc(-c2ccc(F)cc2)c(-c2ccc(F)cc2)n1/C=C/[C@H](O)C[C@H](O)CC(=O)O
21 | 8.1 nM | CC(C)c1nc(-c2ccc(F)cc2)c(-c2cccc(Cl)c2)n1/C=C/[C@@H](O)C[C@@H](O)CC(=O)O
22 | 8.3 nM | CC(C)c1cc(-c2ccncc2)c(-c2ccc(F)cc2)n1/C=C/[C@@H](O)C[C@@H](O)CC(=O)O
23 | 9 nM | CC(C)c1nc(-c2cccnc2)c(-c2ccc(F)cc2)n1/C=C/[C@@H](O)C[C@@H](O)CC(=O)O
24 | 5.7 nM | CC(C)c1nc(-c2ccc(F)cc2)c(-c2ccc(F)cc2)n1/C=C/[C@H](O)C[C@@H](O)CC(=O)O
25 | 7.66 nM | CC(C)c1nc(-c2ccc(F)cc2)c(-c2cc(Cl)cc(Cl)c2)n1/C=C/[C@@H](O)C[C@@H](O)CC(=O)O
26 | 8.7 nM | CC(C)c1cc(-c2ccccn2)c(-c2ccc(F)cc2)n1/C=C/[C@@H](O)C[C@@H](O)CC(=O)O
27 | 9 nM | CC(C)c1nc(-c2ccc(F)cc2)c(-c2ccc(F)cc2)n1/C=C/[C@@H](O)C[C@@H](O)CC(=O)O
28 | 8.7 nM | CC(C)c1cc(-c2ccc(F)cc2)c(-c2ccc(F)cc2)n1/C=C/[C@@H](O)C[C@@H](O)CC(=O)O (stereo in doubt; 19)
29 | 6.98 nM | CC(C)c1cc(-c2ccc(F)cc2)c(-c2ccc(F)cc2)n1/C=C/[C@@H](O)C[C@@H](O)CC(=O)O (stereo in doubt; 29)
30 | 10 nM | COCc1c(C(C)C)nc(C(C)C)c(/C=C/[C@@H](O)C[C@@H](O)CC(=O)O)c1-c1ccc(F)cc1 [CERIVASTATIN]
31 | 23 nM | CC[C@H](C)C(=O)O[C@H]1CCC=C2C=C[C@H](C)[C@H](CC[C@@H]3C[C@@H](O)CC(=O)O3)[C@H]21 [MEVASTATIN]
32 | 5 nM | CC(C)c1nc(N(C)S(C)(=O)=O)nc(-c2ccc(F)cc2)c1/C=C/[C@@H](O)C[C@@H](O)CC(=O)O [ROSUVASTATIN]

Row | SMILES | IC50
33 | CC(C)n1c(/C=C/C(O)CC(O)CC(=O)O)c(-c2ccc(F)cc2)c2ccccc21 (stereo not drawn) [FLUVASTATIN] | 28 nM
